Source: PubChem BioAssay AID2060343 (Molecular Pharmacology Branch, DTP, NCI, 2025)

Test system: 138582-337-R-J1-PDC spheroids with HUVEC/MSC, viability
Assay: Anticancer human tumor 138582-337-R-J1-PDC patient-derived Merkel cell tumor cell line growth inhibition [IpAb]
Conditions: for IC50: curve of first compound; for viability, T/C: stronger effect = lower value; active = viability on the fitted dose curve at most 10% of control; inactive = the rest
Method in brief: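 Spheroids of 60% malignant cells, 25% HUVEC and 15% MSC were exposed to targeted agents combined with ipatasertib or abemaciclib. Doses started at or near clinical Cmax (10 microM when unknown) and fell in half-log steps.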

[1] = second compound 0.01 µM, first compound 0.0316 µM
[2] = second compound 0.01 µM, first compound 0.1 µM
[3] = second compound 0.01 µM, first compound 0.316 µM
[4] = second compound 0.01 µM, first compound 1 µM
[5] = second compound 0.01 µM, first compound 3.16 µM
[6] = second compound 0.01 µM, first compound 10 µM
[7] = second compound 0.0316 µM, first compound 0.0316 µM
[8] = second compound 0.0316 µM, first compound 0.1 µM
[9] = second compound 0.0316 µM, first compound 0.316 µM
[10] = second compound 0.0316 µM, first compound 1 µM
[11] = second compound 0.0316 µM, first compound 3.16 µM
[12] = second compound 0.0316 µM, first compound 10 µM
[13] = second compound 0.1 µM, first compound 0.0316 µM
[14] = second compound 0.1 µM, first compound 0.1 µM
[15] = second compound 0.1 µM, first compound 0.316 µM
[16] = second compound 0.1 µM, first compound 1 µM
[17] = second compound 0.1 µM, first compound 3.16 µM
[18] = second compound 0.1 µM, first compound 10 µM
[19] = second compound 0.316 µM, first compound 0.0316 µM
[20] = second compound 0.316 µM, first compound 0.1 µM
[21] = second compound 0.316 µM, first compound 0.316 µM
[22] = second compound 0.316 µM, first compound 1 µM
[23] = second compound 0.316 µM, first compound 3.16 µM
[24] = second compound 0.316 µM, first compound 10 µM
[25] = second compound 1 µM, first compound 0.0316 µM
[26] = second compound 1 µM, first compound 0.1 µM
[27] = second compound 1 µM, first compound 0.316 µM
[28] = second compound 1 µM, first compound 1 µM
[29] = second compound 1 µM, first compound 3.16 µM
[30] = second compound 1 µM, first compound 10 µM
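Also: spheroids exposed to compounds for seven days.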
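For viability, T/C in this document: 100% = DMSO vehicle control viability.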

CC(=O)c1c(C)c2cnc(Nc3ccc(N4CCNCC4)cn3)nc2n(C2CCCC2)c1=O + CC(C)NCC(C(=O)N1CCN(c2ncnc3c2C(C)CC3O)CC1)c1ccc(Cl)cc1
< 0.000949 µM: IC50 (second compound 10 µM)
> 0.3 µM: IC50 (second compound 0.1 µM) | IC50 (second compound 0.316 µM) | IC50 (second compound 1 µM) | IC50 (second compound 3.16 µM)
inactive: viability, T/C (second compound 0.1 µM, first compound 0.000949 µM) 101% | viability, T/C (second compound 0.1 µM, first compound 0.003 µM) 98.6% | viability, T/C (second compound 0.1 µM, first compound 0.00949 µM) 92.3% | viability, T/C (second compound 0.1 µM, first compound 0.03 µM) 94.3% | viability, T/C (second compound 0.1 µM, first compound 0.0949 µM) 89.2% | viability, T/C (second compound 0.1 µM, first compound 0.3 µM) 103% | viability, T/C (second compound 0.316 µM, first compound 0.000949 µM) 76.2% | viability, T/C (second compound 0.316 µM, first compound 0.003 µM) 74.1% | viability, T/C (second compound 0.316 µM, first compound 0.00949 µM) 78.6% | viability, T/C (second compound 0.316 µM, first compound 0.03 µM) 80.7% | viability, T/C (second compound 0.316 µM, first compound 0.0949 µM) 66.5% | viability, T/C (second compound 0.316 µM, first compound 0.3 µM) 80.6% | viability, T/C (second compound 1 µM, first compound 0.000949 µM) 65.5% | viability, T/C (second compound 1 µM, first compound 0.003 µM) 62.5% | viability, T/C (second compound 1 µM, first compound 0.00949 µM) 59.6% | viability, T/C (second compound 1 µM, first compound 0.03 µM) 52.8% | viability, T/C (second compound 1 µM, first compound 0.0949 µM) 65% | viability, T/C (second compound 1 µM, first compound 0.3 µM) 64.3% | viability, T/C (second compound 3.16 µM, first compound 0.000949 µM) 51% | viability, T/C (second compound 3.16 µM, first compound 0.003 µM) 54.5% | viability, T/C (second compound 3.16 µM, first compound 0.00949 µM) 54% | viability, T/C (second compound 3.16 µM, first compound 0.03 µM) 47.1% | viability, T/C (second compound 3.16 µM, first compound 0.0949 µM) 61.6% | viability, T/C (second compound 3.16 µM, first compound 0.3 µM) 47% | viability, T/C (second compound 10 µM, first compound 0.000949 µM) 45.1% | viability, T/C (second compound 10 µM, first compound 0.003 µM) 44.3% | viability, T/C (second compound 10 µM, first compound 0.00949 µM) 45% | viability, T/C (second compound 10 µM, first compound 0.03 µM) 38.9% | viability, T/C (second compound 10 µM, first compound 0.0949 µM) 37.8% | viability, T/C (second compound 10 µM, first compound 0.3 µM) 44.1%

CC1(C)CCC(CN2CCN(c3ccc(C(=O)NS(=O)(=O)c4ccc(NCC5CCOCC5)c([N+](=O)[O-])c4)c(Oc4cnc5[nH]ccc5c4)c3)CC2)=C(c2ccc(Cl)cc2)C1 + CCN1CCN(Cc2ccc(Nc3ncc(F)c(-c4cc(F)c5nc(C)n(C(C)C)c5c4)n3)nc2)CC1
> 10 µM: IC50 (second compound 0.01 µM) | IC50 (second compound 0.0316 µM) | IC50 (second compound 0.1 µM) | IC50 (second compound 0.316 µM) | IC50 (second compound 1 µM)
inactive: viability, T/C [1] 90.6% | viability, T/C [2] 83.3% | viability, T/C [3] 79.3% | viability, T/C [4] 83.7% | viability, T/C [5] 75.1% | viability, T/C [6] 83.2% | viability, T/C [7] 93.3% | viability, T/C [8] 86.7% | viability, T/C [9] 86.4% | viability, T/C [10] 78.5% | viability, T/C [11] 83.3% | viability, T/C [12] 82.9% | viability, T/C [13] 86.5% | viability, T/C [14] 79% | viability, T/C [15] 85% | viability, T/C [16] 80% | viability, T/C [17] 86.4% | viability, T/C [18] 89.5% | viability, T/C [19] 85% | viability, T/C [20] 90.7% | viability, T/C [21] 81.7% | viability, T/C [22] 86.8% | viability, T/C [23] 90.8% | viability, T/C [24] 106% | viability, T/C [25] 88.4% | viability, T/C [26] 86.3% | viability, T/C [27] 75.1% | viability, T/C [28] 81% | viability, T/C [29] 83.7% | viability, T/C [30] 109%

C=CC(=O)N1CCN(c2nc(=O)n(-c3c(C)ccnc3C(C)C)c3nc(-c4c(O)cccc4F)c(F)cc23)C(C)C1 (stereo not given) + CCN1CCN(Cc2ccc(Nc3ncc(F)c(-c4cc(F)c5nc(C)n(C(C)C)c5c4)n3)nc2)CC1
> 10 µM: IC50 (second compound 0.01 µM) | IC50 (second compound 0.0316 µM) | IC50 (second compound 0.1 µM) | IC50 (second compound 0.316 µM) | IC50 (second compound 1 µM)
inactive: viability, T/C [1] 107% | viability, T/C [2] 107% | viability, T/C [3] 121% | viability, T/C [4] 121% | viability, T/C [5] 143% | viability, T/C [6] 176% | viability, T/C [7] 98.7% | viability, T/C [8] 95.7% | viability, T/C [9] 90.7% | viability, T/C [10] 116% | viability, T/C [11] 125% | viability, T/C [12] 186% | viability, T/C [13] 83.7% | viability, T/C [14] 90.6% | viability, T/C [15] 104% | viability, T/C [16] 119% | viability, T/C [17] 139% | viability, T/C [18] 218% | viability, T/C [19] 94.8% | viability, T/C [20] 94.3% | viability, T/C [21] 92.8% | viability, T/C [22] 105% | viability, T/C [23] 144% | viability, T/C [24] 229% | viability, T/C [25] 104% | viability, T/C [26] 96.8% | viability, T/C [27] 111% | viability, T/C [28] 118% | viability, T/C [29] 135% | viability, T/C [30] 282%

CCCS(=O)(=O)Nc1ccc(F)c(C(=O)c2c[nH]c3ncc(-c4ccc(Cl)cc4)cc23)c1F + CCN1CCN(Cc2ccc(Nc3ncc(F)c(-c4cc(F)c5nc(C)n(C(C)C)c5c4)n3)nc2)CC1
> 10 µM: IC50 (second compound 0.01 µM) | IC50 (second compound 0.0316 µM) | IC50 (second compound 0.316 µM) | IC50 (second compound 1 µM)
7.49 µM: IC50 (second compound 0.1 µM)
inactive: viability, T/C [1] 99.8% | viability, T/C [2] 103% | viability, T/C [3] 95.9% | viability, T/C [4] 98.8% | viability, T/C [5] 112% | viability, T/C [6] 81.9% | viability, T/C [7] 97.9% | viability, T/C [8] 96.8% | viability, T/C [9] 96.8% | viability, T/C [10] 97.2% | viability, T/C [11] 97.8% | viability, T/C [12] 74.8% | viability, T/C [13] 93.2% | viability, T/C [14] 87% | viability, T/C [15] 93.5% | viability, T/C [16] 101% | viability, T/C [17] 93.7% | viability, T/C [18] 35.4% | viability, T/C [19] 105% | viability, T/C [20] 95% | viability, T/C [21] 106% | viability, T/C [22] 90.6% | viability, T/C [23] 103% | viability, T/C [24] 78.2% | viability, T/C [25] 99.4% | viability, T/C [26] 93.8% | viability, T/C [27] 89.1% | viability, T/C [28] 86.3% | viability, T/C [29] 94.1% | viability, T/C [30] 61.1%
